# Tests used:
# [1] = tested on: IL-8 production in TNF-α + IFN-γ-treated HaCaT cells; assay: IL-8 production in TNF-α + IFN-γ-treated HaCaT cells (ELISA); type: cell-based, human; conditions: for IL-8 production: HaCaT cells pre-treated 3 h, then TNF-α + IFN-γ 24 h, result in words; for IC50: Homo sapiens, HaCaT cells pre-incubated with compound 3 h, then TNF-α + IFN-γ (20 ng/mL) 24 h, ELISA
# Description: Next, the effect of the 16 compounds from C. tricuspidata on IL-8 production in HaCaT cells were determined. Briefly, HaCaT cells were pre-incubated with different concentrations of the 16 compounds for 3 h. Thereafter, the cells were subjected to TNF-α + IFN-γ stimulation for 24 h. […] Compound 2, with its flavanone skeletons, has been studied for its cyclooxygenase and tyrosinase inhibitory effects. In a previous study, compound 2 altered the anti-neuroinflammatory response in microglia. Compound 6, a prenylated flavanone, has been reported to have apoptotic effects on A375.S2 melanoma cells and to lead to the induction of apoptotic cell death in KM12, Caco-2, HT29, HCC2998, HCT116, and SW48 cell lines. […] This is the first report on the biological action of compounds 2, 6, 12, 13, 4, and 14 on the inhibitory effects of skin inflammatory factors in skin HaCaT cells. Therefore, further mechanism studies of these six compounds in HaCaT cells were conducted.
# (§1) The cytokines and chemokines in IL-6, IL-8, CCL17 (TARC), and CCL5 (RANTES) HaCaT cells were detected using an enzyme-linked immunosorbent assay. The levels of these cytokines and chemokines were measured using commercial ELISA kits (BioLegend, San Diego, CA, USA), according to the manufacturer’s instructions.
# Figure S3. Effects of the 16 compounds from C. tricuspidata on IL-8 (A, B, and C) production in TNF-α+IFN-γ-treated HaCaT cells. The cells were pre-treated with the indicated concentrations of the C. tricuspidata compounds for 3 h, and then stimulated with TNF-α+IFN-γ (20 ng/mL) for 24 h. […] levels were determined as described in the Materials and Methods section. Data are expressed as the mean ± standard deviation of three experiments. *p < 0.05, **p < 0.01, and ***p < 0.001 compared with TNF- […]
# (1 picture or pasted object on this page, not shown here)
# [2] = tested on: IκBα phosphorylation in HaCaT cells; assay: Phosphorylation of IκBα in TNF-α + IFN-γ-treated HaCaT cells (Western blotting); type: cell-based, human; conditions: HaCaT cells pretreated 3 h, then TNF-α + IFN-γ (20 ng/mL) 10 min; Western blot
# Description: (§2) The activation of NF-κB by TNF-α and/or IFN-γ results from high levels of IκB phosphorylation and the degradation of IκB in keratinocytes. NF-κB–mediated inflammation is a significant component of innate immunity and seems to be a final common pathway for the aggravation of the inflammatory response to stimuli in immune diseases of the skin [56]. To determine the potential mechanisms of the inhibition of TNF-α + IFN-γ-induced pro-inflammatory enzyme and the mediator levels by the six compounds from C. tricuspidata, their effects on the phosphorylation and degradation of cytoplasmic IκBα and on p65 translocation to the nucleus were investigated. […] In addition, compounds 13, 4, and 14 inhibited the phosphorylation of IκBα (Figure 5C,D). When HaCaT cells were exposed to TNF-α + IFN-γ, NF-κB p65 translocated from the cytoplasm to the nucleus.
# (§3) Figure 5 Effects of the six compounds from C. tricuspidata on the degradation of IκB-α (A,B), the phosphorylation of IκBα (C,D), and the translocation of NF-κB p65 to the nucleus (E,F) in HaCaT cells. Cells were pretreated with the six compounds from C. tricuspidata at the indicated concentrations for 3 h and stimulated with TNF-α + IFN-γ (20 ng/mL) for 10 min. IκBα, p-IκBα, and NF-κB p65 were analyzed using Western blotting, as described in the Materials and Methods section. Representative blots from four independent experiments are presented. The immunoblots were quantified using ImageJ software. The band intensity was normalized to that of actin or anti-proliferating cell nuclear antigen (PCNA). * p < 0.05, ** p < 0.01, *** p < 0.001 compared with TNF-α + IFN-γ only.
# Cells were harvested and pelleted via centrifugation at 200× g for 3 min, washed with PBS, and lysed in 20 mM Tris-HCl buffer (pH 7.4) containing a protease inhibitor mixture (0.1 mM phenylmethanesulfonyl fluoride, 5 mg/mL aprotinin, 5 mg/mL pepstatin A, and 1 mg/mL chymostatin). The protein concentration was determined using a protein assay dye reagent concentrate (#5000006; Bio-Rad Laboratories, Hercules, CA, USA). […]
# [3] = tested on: HaCaT cells; assay: Cell Counting Kit (CCK)-8 cell viability / cytotoxicity assay; conditions: CCK-8 assay, 24 h, concentration values that did not result in cytotoxicity
# Description: The cytotoxicity of the 16 compounds was evaluated using a Cell Counting Kit (CCK)-8 assay on HaCaT cells.
# To determine the viability of HaCaT cells, these were maintained at 2 × 10^4 cells/well, treated with the test compounds in the presence or absence of glutamate (5 mM), and cultured for 24 h. Subsequently, a CCK8 assay (Dojindo Laboratories, Kumamoto, Japan) was performed and the cells were incubated for 1 h. The absorbance was then measured at 450 nm.
# [4] = tested on: NF-κB p65 translocation to the nucleus in HaCaT cells; assay: NF-κB p65 translocation to the nucleus in TNF-α + IFN-γ-treated HaCaT cells (Western blotting); type: cell-based, human; conditions: HaCaT cells pretreated 3 h, then TNF-α + IFN-γ (20 ng/mL) 10 min; Western blot
# Description: as §2, §3
# (§4) Cells were harvested and pelleted via centrifugation at 200× g for 3 min, washed with PBS, and lysed in 20 mM Tris-HCl buffer (pH 7.4) containing a protease inhibitor mixture (0.1 mM phenylmethanesulfonyl fluoride, 5 mg/mL aprotinin, 5 mg/mL pepstatin A, and 1 mg/mL chymostatin). The protein concentration was determined using a protein assay dye reagent concentrate (#5000006; Bio-Rad Laboratories, Hercules, CA, USA). A total of 30 micrograms of protein from each sample was resolved using 7.5% and 12% sodium dodecyl sulfate-polyacrylamide gel electrophoresis. Thereafter, the proteins were electrophoretically transferred onto Hybond enhanced chemiluminescence (ECL) nitrocellulose membranes (Bio-Rad Laboratories). The membranes were blocked with 5% skimmed milk, and sequentially incubated with the relevant primary antibody and horseradish peroxidase-conjugated secondary antibody, prior to ECL detection (Pierce Biotechnology, Rockford, IL, USA).
# (§5) HaCaT cells were homogenized in PER-Mammalian Protein Extraction Buffer (1:20, w:v) (Pierce Biotechnology, Rockford, IL, USA) containing freshly added protease inhibitor cocktail I (EMD Biosciences, San Diego, CA, USA) and 1 mM phenylmethanesulfonyl fluoride. The cytosolic fractions were prepared using centrifugation at 16,000× g for 5 min at 4 °C, while the nuclear and cytoplasmic cell extracts were prepared using NE-PER nuclear and cytoplasmic extraction reagents, respectively (Pierce Biotechnology, Rockford, IL, USA).
# [5] = tested on: IL-6 production in TNF-α + IFN-γ-treated HaCaT cells; assay: IL-6 production in TNF-α + IFN-γ-treated HaCaT cells (ELISA); type: cell-based, human; conditions: for IL-6 production: HaCaT cells pre-treated 3 h, then TNF-α + IFN-γ 24 h, result in words; for IC50: Homo sapiens, HaCaT cells pre-incubated with compound 3 h, then TNF-α + IFN-γ (20 ng/mL) 24 h, ELISA
# Description: The skin consists of two basic layers: the epidermis and dermis. The epidermis is mainly composed of keratinocytes. Pro-inflammatory cytokines are known to play an important role in the immune response in keratinocytes. Previous studies have reported the roles of TNF-α and IFN-γ in inducing NF-κB activation, which upregulates the production of IL-6 and IL-8 [25]. […] Accordingly, the effect of the 16 compounds from C. tricuspidata on IL-6 production in TNF-α + IFN-γ-treated HaCaT cells were determined. Briefly, HaCaT cells were pre-incubated with different concentrations of the 16 compounds for 3 h, and then stimulated with TNF-α + IFN-γ for 24 h.
# as §1
# Figure S2. Effects of the 16 compounds from C. tricuspidata on IL-6 production in TNF-α+IFN-γ-treated HaCaT cells (A, B, and C). Cells were pre-treated with the indicated concentrations of the 16 compounds from C. tricuspidata for 3 h and then stimulated with TNF-α+IFN-γ (20 ng/mL) for 24 h. IL-6 levels were determined as described in the Materials and Methods section. The results are presented as the mean ± standard deviation of three experiments. *p < 0.05, **p < 0.01, and ***p < 0.001 compared with TNF-
# [6] = tested on: IκBα degradation in HaCaT cells; assay: Degradation of cytoplasmic IκBα in TNF-α + IFN-γ-treated HaCaT cells (Western blotting); type: cell-based, human; conditions: HaCaT cells pretreated 3 h, then TNF-α + IFN-γ (20 ng/mL) 10 min; Western blot
# Description: as §2, §3, §4, §5
Structure (SMILES),IL-8 production [1],IC50 [1],phosphorylation of IκBα [2],Cytotoxicity [3],NF-κB p65 translocation to the nucleus [4],IL-6 production [5],IC50 [5],degradation of IκBα in the cytoplasm [6]
"C=CC(C)(C)c1c(O)cc(O)c2c(=O)c3cc(O)c(O)cc3oc12 [Compound 14, cudratricusxanthone L]",decreased,3.7 ± 0.7 µM,inhibited,>20 µM,significantly inhibited,significantly decreased,9.86 ± 0.92 µM,inhibit
"CC(C)=CCc1c(O)cc2oc(-c3ccc(O)cc3O)c(CC=C(C)C)c(=O)c2c1O [Compound 6, cudraflavone C]",decreased,2.16 ± 0.5 µM,–,>5 µM,significantly inhibited,significantly decreased,2.78 ± 0.75 µM,inhibit
"CC(C)=CCc1c(O)cc2c(c1O)C(=O)C[C@@H](c1ccc(O)cc1O)O2 [Compound 4, cudraflavanone B]",decreased,9.88 ± 3.22 µM,inhibited,>20 µM,significantly inhibited,significantly decreased,> 20 µM,inhibit
"C=CC(C)(C)c1c(OC)cc2oc3cc(O)c(O)cc3c(=O)c2c1O [Compound 13, 1,6,7-trihydroxy-2-(1,1-dimethyl-2-propenyl)-3-methoxyxanthone]",decreased,3.87 ± 0.96 µM,inhibited,>40 µM,no significant effect,significantly decreased,9.69 ± 2.15 µM,inhibit
